From PubChem BioAssay (NCI)
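These data come from cells grown in 96-well plates and exposed to compound for 48 hours at five concentrations. The concentration for full growth arrest is given as TGI.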 Where a SMILES comes first, the peptide text is derived from it. [ ]: non-standard residue; d: D form. The star is where a group is joined. X28 = COC1=CC(=O)N(C(=O)[C@@H](O*)C(C)C)[C@H]1Cc1ccccc1; NMeV = CN[C@H](C(=O)O)C(C)C; Hexanoyl = CCCCCC(=O)*

Columns and labels:
Experiment in all cases: NCI-60 cell line screen, 48 h
[1] = system: OVCAR-8 ovarian
[2] = system: NCI-H23 lung
[3] = system: NCI-H522 lung
[4] = system: EKVX NSCLC
[5] = system: LOX IMVI melanoma
[6] = system: SK-MEL-2 melanoma
[7] = system: SK-OV-3 ovarian
[8] = system: SF-295 CNS
[9] = system: A498 renal
[10] = system: HS 578T breast
[11] = system: CCRF-CEM leukemia
[12] = system: HCT-116 colon
[13] = system: MALME-3M melanoma
[14] = system: SF-268 CNS
[15] = system: NCI-H226 lung
[16] = system: RXF 393 renal
[17] = system: PC-3 prostate
[18] = system: COLO 205 colon
[19] = system: U251 CNS
[20] = system: TK-10 renal
[21] = system: HCC-2998 colon
[22] = system: SNB-75 CNS
[23] = system: BT-549 breast
[24] = system: HT29 colon
[25] = system: SN12C renal
[26] = system: NCI-H460 lung
[27] = system: K-562 leukemia
[28] = system: KM12 colon
[29] = system: IGROV1 ovarian
[30] = system: OVCAR-3 ovarian
[31] = system: UACC-257 melanoma
[32] = system: UACC-62 melanoma
[33] = system: SK-MEL-28 melanoma
[34] = system: CAKI-1 renal
[35] = system: HOP-92 NSCLC
[36] = system: SF-539 CNS
[37] = system: MCF7 breast
[38] = system: 786-0 renal
[39] = system: DU-145 prostate
[40] = system: ACHN renal
[41] = system: MDA-MB-435
[42] = system: MDA-N
[43] = system: MOLT-4 leukemia
[44] = system: UO-31 renal
[45] = system: HCT-15 colon
[46] = system: RPMI-8226 leukemia
[47] = system: OVCAR-4 ovarian
[48] = system: HOP-62 NSCLC
[49] = system: T-47D breast
[50] = system: NCI/ADR-RES ovarian
[51] = system: SW-620 colon
[52] = system: OVCAR-5 ovarian
[53] = system: HL-60(TB) leukemia
[54] = system: MDA-MB-231 breast
[55] = system: SK-MEL-5 melanoma
[56] = system: A549 NSCLC
[57] = system: SR leukemia
[58] = system: SNB-19 CNS
[59] = system: M14 melanoma

CCCCCC(=O)N[C@H](C(=O)N[C@H](C(=O)N(C)[C@H](C(=O)N1CCC[C@H]1C(=O)N1CCC[C@H]1C(=O)O[C@H](C(=O)N1C(=O)C=C(OC)[C@@H]1Cc1ccccc1)C(C)C)C(C)C)C(C)C)C(C)C (Hexanoyl-VV[NMeV]PP-X28)
TGI [1]: > 100 µM
TGI [2]: > 100 µM
TGI [3]: > 100000 nM
TGI [4]: > 100 µM
TGI [5]: > 100000 nM
TGI [6]: > 100000 nM
TGI [7]: > 100 µM
TGI [8]: > 100000 nM
TGI [9]: > 100000 nM
TGI [10]: > 100000 nM
TGI [11]: > 100000 nM
TGI [12]: > 100000 nM
TGI [13]: > 100000 nM
TGI [14]: > 100 µM
TGI [15]: > 100 µM
TGI [16]: 62.7 µM
TGI [17]: 85.5 µM
TGI [18]: > 100000 nM
TGI [19]: > 100000 nM
TGI [20]: > 100 µM
TGI [21]: > 100000 nM
TGI [22]: 38.5 µM
TGI [23]: > 100 µM
TGI [24]: > 100 µM
TGI [25]: > 100 µM
TGI [26]: > 100000 nM
TGI [27]: > 100 µM
TGI [28]: > 100 µM
TGI [29]: > 100 µM
TGI [30]: > 100 µM
TGI [31]: > 100 µM
TGI [32]: > 100000 nM
TGI [33]: > 100 µM
TGI [34]: > 100 µM
TGI [35]: > 100000 nM
TGI [36]: > 100 µM
TGI [37]: > 100 µM
TGI [38]: > 100000 nM
TGI [39]: > 100 µM
TGI [40]: > 100000 nM
TGI [41]: > 100 µM
TGI [42]: > 100 µM
TGI [43]: > 100000 nM
TGI [44]: > 100000 nM
TGI [45]: > 100 µM
TGI [46]: > 100000 nM
TGI [47]: > 100 µM
TGI [48]: > 100 µM
TGI [49]: > 100 µM
TGI [50]: > 100 µM
TGI [51]: > 100 µM
TGI [52]: > 100 µM
TGI [53]: > 100000 nM
TGI [54]: > 100 µM

CC[C@H]1C=CCC[C@@]2(C[C@@H]3CC[C@@H]4[C@H](C(=O)OCCCCCCCCCCCCCCCC(=O)O)[C@]5(CCC[C@@H](C)O5)NC(=[N+]34)N2)O1
TGI [55]: 251 nM
TGI [1]: 8.03 µM
TGI [2]: 4.83 µM
TGI [3]: 365 nM
TGI [4]: 10.5 µM
TGI [5]: 284 nM
TGI [6]: 347 nM
TGI [7]: 11.8 µM
TGI [8]: 2090 nM
TGI [9]: 1230 nM
TGI [10]: 2130 nM
TGI [11]: 21.5 nM
TGI [12]: 2160 nM
TGI [13]: 423 nM
TGI [14]: 3.07 µM
TGI [15]: 3.69 µM
TGI [16]: 1.9 µM
TGI [56]: 5.87 µM
TGI [17]: 1.9 µM
TGI [18]: 1340 nM
TGI [19]: 903 nM
TGI [20]: 8.73 µM
TGI [21]: 283 nM
TGI [23]: 6.9 µM
TGI [24]: 5.61 µM
TGI [25]: 7.93 µM
TGI [26]: 1120 nM
TGI [27]: 5.73 µM
TGI [28]: 5.76 µM
TGI [29]: 8.93 µM
TGI [30]: 5.83 µM
TGI [57]: 357 nM
TGI [32]: 179 nM
TGI [33]: 5.3 µM
TGI [34]: 3.47 µM
TGI [35]: 615 nM
TGI [36]: 3.12 µM
TGI [37]: 4.95 µM
TGI [38]: 418 nM
TGI [39]: 8 µM
TGI [40]: 1890 nM
TGI [58]: 9.46 µM
TGI [41]: 6.27 µM
TGI [42]: 7.68 µM
TGI [59]: 212 nM
TGI [43]: 2840 nM
TGI [44]: 339 nM
TGI [45]: 7.77 µM
TGI [46]: 582 nM
TGI [47]: 6.47 µM
TGI [48]: 3.6 µM
TGI [49]: 11.9 µM
TGI [50]: 14.8 µM
TGI [51]: 6.37 µM
TGI [52]: 8.73 µM
TGI [53]: 636 nM
TGI [54]: 9.09 µM
